Test results taken from patent US5510353A, “Certain aminoguanidine compounds, pharmaceutical compositions containing them and their use in treating gastrointestinal motility disorders and disorders associated with cephalic pain” (Sandoz Ltd., priority 1991, dated 1996).

Tests used:
5-HT4 receptors = molecular target: T1, 5-HT4 receptors (Cavia porcellus, UniProt O70528); assay: Antagonism of 5-HT-induced contraction, longitudinal muscle strip of guinea pig ileum (5-HT4); assay type: cell-based; settings: methysergide 0.1 μM present, read-out: pA2 value (converted)
T1 construct: The isolated longitudinal muscle of the guinea pig ileum with its adhering myenteric plexus; from tissue; host or cells: guinea pig ileum longitudinal muscle strip with adhering myenteric plexus
Description: The isolated longitudinal muscle of the guinea pig ileum with its adhering myenteric plexus is a well established model which permits investigations of the mechanism of action of various neurotransmitters.
Male guinea pigs (200-400 g) are killed by a blow on the head and exsanguinated. A length of small intestine is removed about 2 cm from the ileo-caecal valve. The ileum is stretched over a glass rod and the mesentery is carefully removed. By strocking tangentially away from the mesenteric attachment with a wad of cotton wool, the longitudinal muscle layer is separated and stripped from the underlying circular muscle. Longitudinal muscle strips, 3-4cm length, are mounted in a 10 ml organ bath containing Tyrode solution at 37° C. and bubbled with a 5% carbon dioxide in oxygen. The Tyrode solution is of the following composition (mmol/1): NaCl 137.0; CaCl2 1.8; KCl 2.7; MgCl2 1.05; NaHCO3 11.9; NaHPO4 0.4; glucose 5.6; and methysergide 0.1 μM. The strips are maintained under a resting tension of 500 mg. Contractions are recorded with an isotonic pendulum lever. After equilibration for 30 min a set concentration of carbachol is applied in 10 min intervals until a consistent reaction is achieved.
Non-cumulative concentration-response curves for 5-HT are established by adding increasing concentrations of the agonist to the organ bath at intervals of at least 15 min. […] Each concentration is left in contact with the tissue for 1 min. Each strip is only used to record two concentration-response curves; the first for 5-HT alone and the second for 5-HT in the presence of a set concentration of antagonist, each strip thus serving as its own control. Antagonists are allowed to preequilibrate for at least 10 min prior to addition of 5-HT. The contractions expressed as percentage of the maximal response to 5-HT obtained from several preparations are plotted as mean values in order to obtain log-concentration-response curves. Inhibition constants are expressed in the form of pA2 values which are graphically determined according to conventional methods (Arunlakshana et al, 1959, McKay 1978). […]

5-HT1D receptor = assay: Contraction of pig anterior cerebral artery segments (5-HT1D mediated); assay type: cell-based; settings: vascular contraction, ketanserin 10^-7 M present
Protocol: Anterior cerebral arteries are excised from pig brains obtained from the local slaughterhouse. Circular segments of 3-4 mm length are mounted between two L-shaped metal prongs and placed in temperature-controlled (37° C.) organ baths filled with Krebs solution that is continuously gassed with 5% CO2 in oxygen. Agonist-induced vascular contractions are measured isometrically. In order to measure only 5-HT1D receptor mediated effects, ketanserin (10^-7 M), which prevents contractions via 5-HT2 receptors, is added to the bath solution. Compounds of the invention induce vascular contractions at a concentration of from 10^-10 to 10^-5 M, particularly 10^-9 to 10^-7 M. In this test, it has been determined that compound of Example 63 has a pD2 value of 9.0.

5HT-1D receptors = assay: Binding affinity to 5HT-1D receptors (Waeber et al.); settings: 5HT-1D receptor binding
Description: Compounds of the invention also have an agonist effect on 5HT-1D receptors. Their binding affinity to 5HT-1D receptors has been determined e.g. according to the method disclosed by C. Waeber et al., Naunyn-Schmiedeberg,s Arch. Pharmacol., 337, 595-601 (1988).

[1] = tested on: small intestine of Beagle dogs; assay: Myoelectric activity of the small intestine in Beagle dogs (implanted electrodes); assay type: in vivo; settings: Canis lupus familiaris, sc, read-out: threshold dose for stimulating myoelectric activity
Protocol: Monopolar electrodes are implanted on the serosal side of the gut wall along the small intestine of Beagle dogs. From these electrodes, signals are fed into a preamplifier and filtered for the registration of low and high frequency potentials, in order to separate slow waves from spikes. The number of spike bursts occuring in 2 min. periods are determined. From this the following data are extracted: duration of phase I--III, interval between 2 consecutive phase III blocks, and propagation velocity. One or two cycles are recorded prior to drug administration which is done subcutaneously 10-15 min after a Phase III has passed the most distal electrodes. Control experiments are performed routinely by means of solvent administration. In fed dogs, the number of spikes per 30 min. is determined additionally. In this test the compounds of the invention stimulate myoelectric activity at dosages of the order of from about 0.001 to 10 mg/kg s.c.

[2] = tested on: isolated guinea-pig ileum; assay: Peristaltic reflex in the isolated guinea-pig ileum; assay type: cell-based; settings: Cavia porcellus, 0.25 h, 15 min contact, read-out: pEC50 value, stimulatory effect on the peristaltic activity (converted)
Protocol: Furthermore, the stimulatory effect on gastrointestinal motility of compounds of the invention is also indicated e.g. by their effects on the peristaltic reflex in the isolated guinea-pig ileum.
Male guinea-pigs, 200-400 g are stunned and bled. Segments of terminal ileum, 4-5 cm long, are removed and suspended as described by Trendelenburg in Arch. Exp. Path. Pharmakol., 81, 55-129 (1917), in a 20 ml organ bath under an initial load of 1 g. The tissue is bathed with a modified Krebs solution (NaCl 118.6; CaCl2 2.7; KCl 4.7; KH2 PO4 1.2; MgSO4 0.1; NaHCO3 25.0; and glucose 5.6 mM), maintained at 37° C. and bubbled with 5% CO2 in oxygen. Peristalsis is elicited for 30 s by increasing the intraluminal pressure from zero by 1 to 4 cm H2 O. Measurements are made of longitudinal muscle responses by using an isotonic force-displacement transducer and of circular muscle activity by employing a pressure transducer. The area under the curve (AUG) of peristaltic contractions is determined and concentration response curves are established by plotting the AUC representing the circular and longitudinal muscle activity. Each preparation is used as its own control, taking the peristaltic activity before the administration of the compounds to be tested as 100%. Compounds to be tested are added to the serosal side and are left in contact with the tissue for 15 min. In this test compounds of the invention have a stimulatory effect on the peristaltic activity at concentrations of the order of from about 10^-10 M to 10^-7 M.

T1 sequence (O70528 whole entry): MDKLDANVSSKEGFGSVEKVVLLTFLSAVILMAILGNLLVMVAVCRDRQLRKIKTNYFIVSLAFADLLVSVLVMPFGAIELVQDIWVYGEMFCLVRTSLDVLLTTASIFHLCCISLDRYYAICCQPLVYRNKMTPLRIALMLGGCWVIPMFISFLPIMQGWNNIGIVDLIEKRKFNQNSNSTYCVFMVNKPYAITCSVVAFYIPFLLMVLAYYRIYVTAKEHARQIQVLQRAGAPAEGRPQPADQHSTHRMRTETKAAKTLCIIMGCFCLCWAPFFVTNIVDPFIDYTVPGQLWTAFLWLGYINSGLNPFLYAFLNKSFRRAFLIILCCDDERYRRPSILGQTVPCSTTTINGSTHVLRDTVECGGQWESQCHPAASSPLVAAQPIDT

Structure (SMILES): CCCCCNC(=N)NN=Cc1cn(CC)c2ccc(O)cc12 [Example 90]
- Kb (5-HT4 receptors): 10 nM

Structure (SMILES): CCCCCNC(=N)NN=Cc1c[nH]c2ccc(C(N)=O)cc12 [Example 63]
- pD2 value (5-HT1D receptor): 9.0
- pKD value (5HT-1D receptors): 8.55

Structure (SMILES): COc1cc(N)c(Cl)cc1C(=O)NC1CCN(CCCOc2ccc(F)cc2)CC1OC (stereo not shown) [Cisapride, reference compound]
- minimal effective dose [1]: 0.3 mg/kg
- EC50 [2]: > 100 nM

Structure (SMILES): CCCCCNC(=N)NN=Cc1c[nH]c2c(C)cc(O)cc12 [Example 89]
- Kb (5-HT4 receptors): 7.94 nM

Structure (SMILES): CCCCCNC(=N)NN=Cc1c[nH]c2ccc(OC)cc12 [Example 13]
- minimal effective dose [1]: 0.03 mg/kg
- EC50 [2]: 1 nM

Structure (SMILES): CCCCCN(C)C(=N)NN=Cc1c[nH]c2c(C)cc(O)cc12 [Example 97]
- Kb (5-HT4 receptors): 5.01 nM

Structure (SMILES): CCN(CC)CCNC(=O)c1cc(Cl)c(N)cc1OC [metoclopramide]
- EC50 [2]: 2000 nM
